Columns and labels:
[1] = test system: lambs with acute pulmonary hypertension (U-46619); details: cited from earlier work; for effect on mean arterial pressure / pulmonary vasodilation / transpulmonary cGMP release / systemic arterial oxygenation: awake lambs; for effect on mean arterial pressure / pulmonary vasodilation / transpulmonary cGMP release: U-46619 infusion
NO-deficient rats = details: cited from earlier work
[2] = test system: Guinea pig tracheal smooth muscle (GPTSM); details: guinea pig tracheal strips, sub-maximal EFS; 95% Cl 0.78-0.94; read-out: IC50, inhibition of baseline EFS-induced contraction; cited from earlier work
patients with BMD = details: single oral dose of 20 mg, double-blind randomized placebo-controlled crossover trial; cited from earlier work
[3] = biological target: T1, soluble guanylate cyclase (sGC) endogenously expressed in HEK293 cells (Homo sapiens, UniProt Q02108+Q02153); experiment: sGC-HEK-cGMP assay with LC/MS detection (whole cell); format: cell-based; details: 10 μM DETA-NONOate, 20 min, concentration eliciting 50% of high control response (30 μM Compound Y), read-out: sGC_HEK_LC MS EC50 Abs
T1 construct: endogenously expressing soluble guanylate cyclase (sGC); endogenous in cells; host or cells: HEK293
T1 sequence (Q02153 1-619): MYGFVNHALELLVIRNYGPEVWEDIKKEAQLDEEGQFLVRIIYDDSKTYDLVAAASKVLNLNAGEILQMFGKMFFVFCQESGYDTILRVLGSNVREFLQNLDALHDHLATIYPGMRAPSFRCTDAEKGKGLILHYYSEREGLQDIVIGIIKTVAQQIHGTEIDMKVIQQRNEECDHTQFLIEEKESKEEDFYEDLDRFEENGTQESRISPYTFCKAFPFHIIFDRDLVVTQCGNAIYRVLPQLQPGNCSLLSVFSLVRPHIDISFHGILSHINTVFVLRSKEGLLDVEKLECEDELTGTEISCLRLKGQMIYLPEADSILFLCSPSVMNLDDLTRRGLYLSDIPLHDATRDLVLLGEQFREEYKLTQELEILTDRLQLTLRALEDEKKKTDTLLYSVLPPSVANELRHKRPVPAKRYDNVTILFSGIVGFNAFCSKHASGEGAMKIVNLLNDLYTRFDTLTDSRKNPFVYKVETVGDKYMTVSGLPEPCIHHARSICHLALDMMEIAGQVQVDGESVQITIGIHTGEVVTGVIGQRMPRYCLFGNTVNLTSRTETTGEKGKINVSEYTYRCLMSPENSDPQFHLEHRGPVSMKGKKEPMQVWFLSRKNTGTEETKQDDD
T1 sequence (Q02108 1-690): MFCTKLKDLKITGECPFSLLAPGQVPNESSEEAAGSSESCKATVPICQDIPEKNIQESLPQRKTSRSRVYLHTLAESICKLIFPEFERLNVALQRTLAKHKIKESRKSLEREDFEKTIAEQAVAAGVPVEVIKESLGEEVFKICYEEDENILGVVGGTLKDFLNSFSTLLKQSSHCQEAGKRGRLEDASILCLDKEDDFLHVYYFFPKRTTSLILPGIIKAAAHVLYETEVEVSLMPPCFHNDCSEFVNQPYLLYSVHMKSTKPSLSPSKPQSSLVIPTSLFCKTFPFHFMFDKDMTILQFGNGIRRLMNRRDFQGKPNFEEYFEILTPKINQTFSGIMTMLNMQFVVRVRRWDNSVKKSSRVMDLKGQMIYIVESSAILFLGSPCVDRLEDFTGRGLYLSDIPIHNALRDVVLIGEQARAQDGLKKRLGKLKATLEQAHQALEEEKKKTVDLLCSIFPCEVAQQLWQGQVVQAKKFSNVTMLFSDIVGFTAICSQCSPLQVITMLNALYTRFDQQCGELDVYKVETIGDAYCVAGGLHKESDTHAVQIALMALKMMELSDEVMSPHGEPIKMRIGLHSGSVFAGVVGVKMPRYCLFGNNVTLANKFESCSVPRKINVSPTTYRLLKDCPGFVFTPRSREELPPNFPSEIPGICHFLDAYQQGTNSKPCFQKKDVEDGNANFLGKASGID
Experimental: Example 2: Biological Activity Measurement by the sGC-HEK-cGMP Assay, with LC/MS Detection
Human embryonic kidney cells (HEK293), endogenously expressing soluble guanylate cyclase (sGC), were used to evaluate the activity of test compounds. Compounds stimulating the sGC enzyme should cause an increase in the intracellular concentration of cGMP. HEK 293 cells were seeded in Dulbecco's Modification of Eagle's Medium supplemented with fetal bovine serum (10% final) and penicillin (100 U/mL)/streptomycin (100 μg/mL) in a 50 μL volume at a density of 1.5×10^4 cells/well in a poly-D-lysine coated 384 well flat bottom plate. Cells were incubated overnight at 37° C. in a humidified chamber with 5% CO2. Medium was aspirated and cells were washed with 1× Hank's Buffered Saline Salt Solution (50 μL). Cells were then incubated for 15 minutes at 37° C. with 50 μL of a 0.5 mM 3-isobutyl-1-methylxanthine (IBMX) solution. Test article and Diethylenetriamine NONOate (DETA-NONOate) solutions (x […] concentration for test article solution and 10 μM concentration for DETA-NONOate solution; wherein x is one of the following concentrations);
were then added to the assay mixture and the resulting mixture incubated at 37° C. for 20 minutes. After the 20 minute incubation, the assay mixture was aspirated and 10% acetic acid containing 150 ng/mL+3-cGMP (internal standard for LCMS) (50 μL) was added to the cells. The plate was incubated at 4° C. for 30 minutes in the acetic acid solution to stop the reaction and lyse the cells. The plates were then centrifuged at 1,000 g for 3 minutes at 4° C. and the supernatant transferred to a clean reaction plate for LCMS analysis.
cGMP concentrations were determined from each sample using the LCMS conditions below (Table 2) and calculated standard curve. The standard curve was prepared in 10% acetic acid with 150 ng/mL+3cGMP (isotopically labelled cGMP with a weight 3 units higher than wild type) with the following final concentrations of cGMP in ng/mL: 1, 5, 10, 50, 100, 250, 500, 1000, 2000.
Data were normalized to a high control using the following equation: 100*(Sample−Low Control)/(High Control−Low Control), where the low control is the average of 16 samples treated with 1% DMSO, and the high control is the average of 16 samples treated with 30 μM of Compound Y depicted below. Data were fit using a 4-parameter fit (log(agonist) vs. response variable slope) using GraphPad Prism Software v.5. n=2 for all compounds. The Absolute EC50 was interpolated from the curve fit and is defined as the concentration at which a given compound elicits 50% of the high control response. Compounds failing to elicit a minimum response of 50% are reported as >30 μM. For compounds run in duplicate or n higher than 2, the result herein given is the geometric mean of the several results obtained.

obese mice = details: cited from earlier work

In the case of Nc1nc(-c2nn(Cc3ccccc3F)c3ncccc23)nc(N)c1N1CCOCC1 [BAY 41-8543], the “magnitude and duration of pulmonary vasodilation induced by iNO” value ([1]; after inhaling microparticles) is given as “augmented”, the “effect on mean arterial pressure” value ([1]; inhaled microparticles) is given as “without significant effect on mean arterial pressure” and the pulmonary vasodilation ([1]; inhaled microparticles) is given as “dose dependent pulmonary vasodilation”. For the same compound, the “transpulmonary cGMP release” value ([1]; inhaled microparticles) was “increased transpulmonary cGMP release” and the systemic arterial oxygenation ([1]; inhaled microparticles) was “increased systemic arterial oxygenation”.
For Nc1nc(-c2nn(Cc3ccccc3F)c3ncccc23)ncc1C1CC1 [BAY-2272], the “effect on bladder dysfunction” value (NO-deficient rats) is listed as “protective effects”.
For CC(C)[N+]1(C)[C@@H]2CC[C@H]1C[C@@H](OC(=O)C(CO)c1ccccc1)C2 (stereo partly shown) [Ipratropium bromide], the IC50 [2] is given as 0.86 nM.
In the case of O=C(O)CCCCN(CCc1ccccc1OCc1ccc(CCc2ccccc2)cc1)Cc1ccc(C(=O)O)cc1 [BAY 58-2667], the “pulmonary vasodilation and transpulmonary cGMP release after treatment with ODQ” value ([1]; inhaled microparticles, after intravenous ODQ) is listed as “greatly enhanced”, the “effect on mean arterial pressure” value ([1]; inhaled microparticles) is listed as “without significant effect on mean arterial pressure” and the pulmonary vasodilation ([1]; inhaled microparticles) is listed as “dose dependent pulmonary vasodilation”. The “transpulmonary cGMP release” value ([1]; inhaled microparticles) was “increased transpulmonary cGMP release” and the systemic arterial oxygenation ([1]; inhaled microparticles) was “increased systemic arterial oxygenation”.
In the case of CN1CC(=O)N2[C@H](c3ccc4c(c3)OCO4)c3[nH]c4ccccc4c3C[C@@H]2C1=O [tadalafil], the “normal blood flow regulation” value (patients with BMD) is given as “restored in eight of nine patients”.
Work on CC1(C(=O)NC2CC2)C(=O)Nc2nc(-c3cc(OC(F)F)n(Cc4cccc(F)c4F)n3)nc(N)c21 (stereo not shown) [Compound I-54] yielded an EC50 [3] of 101 to 1000 nM.
With COC(=O)NC1(C)C(=O)Nc2nc(-c3cc(OC)n(Cc4ccccc4F)n3)[nH]c(=O)c21 (stereo not shown) [Compound I-26] the EC50 [3] was no less than 1000 nM.
COc1cc(-c2ncc(F)c(NCCCCC(=O)O)n2)nn1Cc1ccccc1F [Compound I-32] showed an EC50 [3] of 101 to 1000 nM.
In the case of COc1cc(-c2ncc(F)c(N(C)CC3(C(=O)O)CCCC3)n2)nn1Cc1ccccc1F [Compound I-66], the EC50 [3] is reported as 101 to 1000 nM.
With COc1cc(-c2ncc(F)c(N3CCNC(=O)C3)n2)nn1Cc1ccccc1F [Compound I-62] the EC50 [3] was no less than 1000 nM.
COc1cc(-c2nc(N)c3c(n2)NC(=O)C3(C)C(N)=O)nn1CCC(F)(F)F (stereo not shown) [Compound I-7] showed an EC50 [3] of no less than 1000 nM.
With CCOC(=O)C1(C)C(=O)Nc2nc(-c3cc(OC)n(Cc4ccccc4F)n3)[nH]c(=O)c21 (stereo not shown) [Compound I-35] the EC50 [3] was 101 to 1000 nM.
In the case of O=C(O)CCCCN(CCc1cc(F)ccc1OCc1ccc(-c2ccc(C(F)(F)F)cc2)cc1)Cc1ccc(C(=O)O)cc1 [BAY 60-2770], the “effect on overactive bladder” value (obese mice) is given as “ameliorates overactive bladder in obese mice”.
CC1(C(N)=O)C(=O)Nc2nc(-c3cc(OC(F)F)n(CCC(F)(F)C(F)(F)F)n3)nc(N)c21 (stereo not shown) [Compound I-41] showed an EC50 [3] of no less than 1000 nM.
In the case of COc1cc(-c2ncc(F)c(N3CCC(O)(CO)CC3)n2)nn1Cc1ccccc1F [Compound I-61], the EC50 [3] is reported as no less than 1000 nM.
In the case of COc1cc(-c2nc3c(c(=O)[nH]2)=C(C)C(=O)N=3)nn1Cc1ccccc1F [Compound I-15], the EC50 [3] is reported as no less than 1000 nM.
In the case of COc1cc(-c2ncc(F)c(NCc3cc(=O)[nH]o3)n2)nn1Cc1ccccc1F [Compound I-19], the EC50 [3] is reported as no less than 1000 nM.
Cn1c(-c2nc(N)c3c(n2)NC(=O)C3(C)C(N)=O)nn(Cc2ccccc2F)c1=O (stereo not shown) [Compound I-18] showed an EC50 [3] of no less than 1000 nM.
CC1(C)C(=O)Nc2nc(-c3cc(OC(F)F)n(Cc4cccc(F)c4F)n3)nc(N)c21 [Compound I-34] gave an EC50 [3] of 101 to 1000 nM.
In the case of COc1cc(-c2nccc(N)n2)nn1Cc1ccccc1F [Compound I-6], the EC50 [3] is reported as no less than 1000 nM.
For Nc1nc(-c2nn(Cc3ccccc3F)c3ncccc23)ncc1C1CC1 [BAY 41-2272], the “effect on mean arterial pressure” value ([1]; inhaled microparticles) is given as “without significant effect on mean arterial pressure”, the pulmonary vasodilation ([1]; inhaled microparticles) is given as “dose dependent pulmonary vasodilation” and the “transpulmonary cGMP release” value ([1]; inhaled microparticles) is given as “increased transpulmonary cGMP release”.

— patent publication US20210214364A1, “sGC STIMULATORS” (Cyclerion Therapeutics, Inc., priority 2013, published 2021)
